System: liver, kidney and lung
Experiment: histopathological examination of tissue after administration of SH045
Type: in vivo, mice
Settings: 20 mg/kg BW i.v., single and repeated (5 days); hematoxylin-eosin
Description: Liver, kidney, and lung were collected after repeated administration, fixed and processed for inspection for histopathological alterations (Supplementary Materials SM3).
Larixyl-N-methylcarbamate ((1S,4S,4aR,8aS)-4-((S)-3-hydroxy-3-methylpent-4-en-1-yl)-4a,8,8-trimethyl-3-methylenedeca-hydro-naphthalen-1-yl methylcarbamate, SH045, TRPC6 inhibitor) was synthesized as described by Häfner et al. [1]. (+)-Larixol (internal standard, IS) was isolated from Larix decidua turpentine [2]. Kolliphor® EL was obtained from Caelo (Hilden, Germany). Acetonitrile (ACN), water, and formic acid (LC -MS grade each) were purchased from Fisher Scientific (Schwerte, Germany). […]
SM2 Quantification of SH045 by HPLC and tandem mass spectrometric methods (LC-MS/MS) In brief, chromatographic separation was achieved using a Zorbax Eclipse XDB-C8 column (100 × 3.0 mm, 3.5 μm 80 Å, Agilent Technologies) with linear gradient elution using water and ACN, each with 0.1 % formic acid as additive, during a total run time of 20 min. For quantification (+)-larixol was used as IS. […] Freshly prepared calibration samples for SH045 in plasma and tissue comprised eight concentration levels analyzed in duplicates (2, 5, 10, 100, 200, 800, 1200 and 1600 ng/mL). […]

`C=C[C@@](C)(O)CC[C@H]1C(=C)C[C@H](OC(=O)NC)[C@H]2C(C)(C)CCC[C@]12C` [SH045, (1S,4S,4aR,8aS)-4-((S)-3-Hydroxy-3-methylpent-4-en-1-yl)-4a,8,8-trimethyl-3-methylenedecahydronaphthalen-1-yl methylcarbamate] was tested, and the “histopathological changes in liver, kidney and lung” value was “no histopathological changes were observed”.

Reference: publication PMC8998618, “A Pharmacokinetic and Metabolism Study of the TRPC6 Inhibitor SH045 in Mice by LC-MS/MS” (International Journal of Molecular Sciences, 2022)
